Reference: patent US20070128217A1 (priority 2003, published 2007)

Legend:
[1] = tested on: antibodies in sera from SARS patients (sera 1a, 1b, 2, 6, 37, 62, London, SARS-yellow, SARS-green); type: binding, human; parameters: Binding of serum 6 to linear peptides of protein X1 of SARS-CoV Urbani / Binding of serum 37 to linear peptides of protein X1 of SARS-CoV Urbani / Binding of serum 6 to looped/cyclic peptide (PEPSCAN-ELISA) / Binding of serum 37 to looped/cyclic peptide (PEPSCAN-ELISA) / Binding of serum 37 to looped/cyclic peptides of protein X1 of SARS-CoV Urbani / Binding of serum 6 to linear peptides of protein X2 / Binding of serum 37 to linear peptides of protein X2 / Binding of serum 37 to looped/cyclic peptides of protein X2 of SARS-CoV Urbani / Binding of serum 6 to linear peptides of protein M of SARS-CoV Urbani / Binding of serum 37 to linear peptides of protein M of SARS-CoV Urbani / Binding of serum 6 to looped/cyclic peptides of protein M of SARS-CoV Urbani / Binding of serum 37 to looped/cyclic peptides of protein M of SARS-CoV Urbani / Binding of serum 6 to linear peptides of protein X3 of SARS-CoV Urbani / Binding of serum 37 to linear peptides of protein X3 of SARS-CoV Urbani / Binding of serum 37 to looped/cyclic peptides of protein X3 of SARS-CoV Urbani / Binding of serum 6 to linear peptides of protein X4 of SARS-CoV Urbani / Binding of serum 37 to linear peptides of protein X4 of SARS-CoV Urbani / Binding of serum 37 to looped/cyclic peptides of protein X4 of SARS-CoV Urbani / Binding of serum 6 to linear peptides of protein X5 of SARS-CoV Urbani / Binding of serum 37 to linear peptides of protein X5 of SARS-CoV Urbani / Binding of serum 37 to looped/cyclic peptides of protein X5 of SARS-CoV Urbani / Binding of serum 6 to linear peptides of protein N of SARS-CoV Urbani / Binding of serum 37 to linear peptides of protein N of SARS-CoV Urbani / Binding of serum 6 to linear peptide (PEPSCAN-ELISA) / Binding of serum 1a to looped/cyclic peptides of protein N of SARS-CoV Urbani / Binding of serum 1b to looped/cyclic peptides of protein N of SARS-CoV Urbani / Binding of serum 2 to looped/cyclic peptides of protein N of SARS-CoV Urbani / Binding of serum 6 to looped/cyclic peptides of protein N of SARS-CoV Urbani / Binding of serum 37 to looped/cyclic peptides of protein N of SARS-CoV Urbani / Binding of serum 62 to looped/cyclic peptides of protein N of SARS-CoV Urbani / Binding of serum London to looped/cyclic peptides of protein N of SARS-CoV Urbani / Binding of serum SARS-green to looped/cyclic peptides of protein N of SARS-CoV Urbani: unit not given here
[2] = tested on: recombinant human anti-SARS-CoV antibody 03-018; type: binding; parameters: Binding of antibody 03-018 to linear peptides of the N protein of SARS-CoV Urbani / Binding of antibody 03-018 to looped/cyclic peptides of the N protein of SARS-CoV Urbani: unit not given here
[3] = tested on: control sera (pooled serum of ten healthy LUMC hospital workers; commercial negative donor pooled serum from the Dutch bloodbank); type: binding, human; parameters: Binding of Control serum LUMC to linear peptides / Binding of Control serum Blood-bank to linear peptides / Binding of Control serum LUMC to looped peptides / Binding of Control Serum Blood-Bank to Looped peptides / Binding of Control serum LUMC to linear peptides of the protein M of SARS-CoV Urbani / Binding of Control serum Blood-bank to linear peptides of the protein M of SARS-CoV Urbani / Binding of Control serum LUMC to looped peptides of the protein M of SARS-CoV Urbani / Binding of Control Serum Blood-Bank to Looped peptides of the protein M of SARS-CoV Urbani: unit not given here
[4] = tested on: rabbit serum obtained by immunizing a rabbit with the SARS-CoV strain Frankfurt 1; type: binding; parameters: Binding of a rabbit serum to linear peptides / Binding of a rabbit serum to looped peptides / Rabbit serum linear peptides / Rabbit serum looped peptides / Binding of a rabbit serum to linear peptides of protein N of SARS-CoV Urbani (Rabbit serum linear peptides) / Binding of a rabbit serum to looped/cyclic peptides of protein N of SARS-CoV Urbani (Rabbit serum looped peptides): unit not given here

Sequence	Binding of serum 1a to linear peptides of protein N of SARS-CoV Urbani [1]	Binding of serum 1a to looped/cyclic peptides of protein N of SARS-CoV Urbani [1]	Binding of serum 1b to linear peptides of protein N of SARS-CoV Urbani [1]	Binding of serum 1b to looped/cyclic peptides of protein N of SARS-CoV Urbani [1]	Binding of serum 2 to linear peptides of protein N of SARS-CoV Urbani [1]	Binding of serum 2 to looped/cyclic peptides of protein N of SARS-CoV Urbani [1]	Binding of serum 6 to linear peptides of protein N of SARS-CoV Urbani [1]	Binding of serum 6 to looped/cyclic peptides of protein N of SARS-CoV Urbani [1]	Binding of serum 37 to linear peptides of protein N of SARS-CoV Urbani [1]	Binding of serum 37 to looped/cyclic peptides of protein N of SARS-CoV Urbani [1]	Binding of serum 62 to linear peptides of protein N of SARS-CoV Urbani [1]	Binding of serum 62 to looped/cyclic peptides of protein N of SARS-CoV Urbani [1]	Binding of serum London to linear peptides of protein N of SARS-CoV Urbani [1]	Binding of serum London to looped/cyclic peptides of protein N of SARS-CoV Urbani [1]	Binding of serum SARS-green to linear peptides of protein N of SARS-CoV Urbani [1]	Binding of serum SARS-green to looped/cyclic peptides of protein N of SARS-CoV Urbani [1]	Binding of serum SARS-yellow to linear peptides of protein N of SARS-CoV Urbani [1]	Binding of serum SARS-yellow to looped/cyclic peptides of protein N of SARS-CoV Urbani [1]	Binding of antibody 03-018 to linear peptides of the N protein of SARS-CoV Urbani [2]	Binding of antibody 03-018 to looped/cyclic peptides of the N protein of SARS-CoV Urbani [2]	other results
VTLLPAADMDDFSRQ	0.3	0.3	0.1	0.1	0.2	0.2	0.1	0.0	0.6	0.1	0.6	0.4	0.6	0.1	0.3	0.2	0.6	0.2	0.1	0.2	Control Serum Blood-Bank Looped peptides [3]: 0.1; Control serum Blood-bank linear peptides [3]: 0.5; Control serum LUMC linear peptides [3]: 0.5; Control serum LUMC looped peptides [3]: 0.4; Binding of a rabbit serum to linear peptides of protein N of SARS-CoV Urbani (Rabbit serum linear peptides) [4]: 0.0; Binding of a rabbit serum to looped/cyclic peptides of protein N of SARS-CoV Urbani (Rabbit serum looped peptides) [4]: 0.0
VTPSGTWLTYHGAIK	0.3	0.2	0.1	0.1	0.2	0.2	0.2	0.1	0.7	0.4	0.8	0.3	0.7	0.3	0.5	0.0	0.5	0.2	0.1	0.2	Control Serum Blood-Bank Looped peptides [3]: 0.3; Control serum Blood-bank linear peptides [3]: 0.8; Control serum LUMC linear peptides [3]: 0.6; Control serum LUMC looped peptides [3]: 0.3; Binding of a rabbit serum to linear peptides of protein N of SARS-CoV Urbani (Rabbit serum linear peptides) [4]: 0.1; Binding of a rabbit serum to looped/cyclic peptides of protein N of SARS-CoV Urbani (Rabbit serum looped peptides) [4]: 0.1
VTQAFGRRGPEQTQG	–	0.3	–	0.2	–	0.2	–	0.1	–	0.4	–	0.3	–	0.3	–	0.2	–	0.3	0.1	0.2	Binding of serum 1a to linear peptide (PEPSCAN-ELISA) [1]: 0.3; Binding of serum 1b to linear peptide (PEPSCAN-ELISA) [1]: 0.1; Binding of serum 2 to linear peptide (PEPSCAN-ELISA) [1]: 0.1; Binding of serum 6 to linear peptide (PEPSCAN-ELISA) [1]: 0.2; Binding of serum 37 to linear peptide (PEPSCAN-ELISA) [1]: 0.6; Binding of serum 62 to linear peptide (PEPSCAN-ELISA) [1]: 0.5; Binding of serum London to linear peptide (PEPSCAN-ELISA) [1]: 0.5; Binding of serum SARS-green to linear peptide (PEPSCAN-ELISA) [1]: 0.5; Binding of serum SARS-yellow to linear peptide (PEPSCAN-ELISA) [1]: 0.7; Binding of Control Serum Blood-Bank to Looped peptides [3]: 0.6; Binding of Control serum Blood-bank to linear peptides [3]: 0.8; Binding of Control serum LUMC to linear peptides [3]: 0.7; Binding of Control serum LUMC to looped peptides [3]: 0.5; Recognition of the peptide by the rabbit serum [4]: recognized
VWVATEGALNTPKDH	0.2	0.3	0.1	0.3	0.2	0.6	0.2	0.4	0.8	0.6	0.7	0.6	0.6	1.2	0.5	0.7	0.6	0.6	0.1	0.3	Binding of Control Serum Blood-Bank to Looped peptides [3]: 0.8; Binding of Control serum Blood-bank to linear peptides [3]: 0.6; Binding of Control serum LUMC to linear peptides [3]: 0.8; Binding of Control serum LUMC to looped peptides [3]: 0.6; Binding of a rabbit serum to linear peptides of protein N of SARS-CoV Urbani (Rabbit serum linear peptides) [4]: 0.1; Binding of a rabbit serum to looped/cyclic peptides of protein N of SARS-CoV Urbani (Rabbit serum looped peptides) [4]: 0.4
